Measurements from ChEMBL document CHEMBL4507291 (2021).

How the values were obtained:
[1] = target: Serine/threonine-protein kinase WNK1 (Homo sapiens) (UniProt Q9H4A3)
[2] = target: Maternal embryonic leucine zipper kinase (Homo sapiens) (UniProt Q14680)
[3] = target: Eukaryotic translation initiation factor 2-alpha kinase 1 (Homo sapiens) (UniProt Q9BQI3)
[4] = target: Serine/threonine-protein kinase pim-1 (Homo sapiens) (UniProt P11309)
[5] = system: Serine/threonine-protein kinase B-raf (Homo sapiens), P15056 [V600E]
[6] = target: D(1B) dopamine receptor (Homo sapiens) (UniProt P21918); settings: Compound concentration 10.0 uM
[7] = target: Glycogen synthase kinase-3 alpha (Homo sapiens) (UniProt P49840)
[8] = target: Mitogen-activated protein kinase kinase kinase kinase 5 (Homo sapiens) (UniProt Q9Y4K4)
[9] = target: Mitogen-activated protein kinase 15 (Homo sapiens) (UniProt Q8TD08)
[10] = target: Tyrosine-protein kinase Yes (Homo sapiens) (UniProt P07947)
[11] = system: ALK tyrosine kinase receptor (Homo sapiens), Q9UM73 [L1196M]
[12] = target: Citron Rho-interacting kinase (Homo sapiens) (UniProt O14578)
[13] = system: Tyrosine-protein kinase ABL1 (Homo sapiens), P00519 [F317L]
[14] = target: ALK tyrosine kinase receptor (Homo sapiens) (UniProt Q9UM73)
[15] = system: Mast/stem cell growth factor receptor Kit (Homo sapiens), P10721 [L576P]
[16] = target: T1, TGF-beta receptor type-1 (Homo sapiens) (UniProt P36897)
T1 sequence (whole entry): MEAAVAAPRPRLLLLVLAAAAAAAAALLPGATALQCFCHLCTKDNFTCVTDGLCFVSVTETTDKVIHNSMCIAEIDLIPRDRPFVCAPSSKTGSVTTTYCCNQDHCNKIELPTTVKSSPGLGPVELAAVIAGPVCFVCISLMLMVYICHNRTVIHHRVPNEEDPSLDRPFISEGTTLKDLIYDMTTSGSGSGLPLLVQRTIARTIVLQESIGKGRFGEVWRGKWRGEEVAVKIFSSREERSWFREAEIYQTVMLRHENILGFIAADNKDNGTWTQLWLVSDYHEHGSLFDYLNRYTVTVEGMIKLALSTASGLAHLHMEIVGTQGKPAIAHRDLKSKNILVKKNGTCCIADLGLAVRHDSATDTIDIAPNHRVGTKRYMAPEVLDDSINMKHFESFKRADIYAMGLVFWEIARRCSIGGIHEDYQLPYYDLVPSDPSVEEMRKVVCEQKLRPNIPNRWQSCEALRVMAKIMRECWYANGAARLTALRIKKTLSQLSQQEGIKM

[17] = target: T2, Serine/threonine-protein kinase 4 (Homo sapiens) (UniProt Q13043)
T2 sequence (whole entry): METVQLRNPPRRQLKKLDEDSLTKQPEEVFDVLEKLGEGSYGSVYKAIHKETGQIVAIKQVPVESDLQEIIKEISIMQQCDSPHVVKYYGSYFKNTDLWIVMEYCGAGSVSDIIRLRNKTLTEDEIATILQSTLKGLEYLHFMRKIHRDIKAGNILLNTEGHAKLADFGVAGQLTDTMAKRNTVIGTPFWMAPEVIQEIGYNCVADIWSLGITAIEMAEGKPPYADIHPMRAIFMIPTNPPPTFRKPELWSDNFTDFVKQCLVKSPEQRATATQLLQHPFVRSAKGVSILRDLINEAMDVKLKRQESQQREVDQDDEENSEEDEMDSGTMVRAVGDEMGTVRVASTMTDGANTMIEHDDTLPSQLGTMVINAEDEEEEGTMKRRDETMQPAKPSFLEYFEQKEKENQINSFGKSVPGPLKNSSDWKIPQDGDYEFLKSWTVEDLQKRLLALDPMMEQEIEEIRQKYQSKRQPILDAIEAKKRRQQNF

[18] = system: Epidermal growth factor receptor (Homo sapiens), P00533 [UNDEFINED MUTATION]
[19] = Compound concentration 100.0 nM
[20] = Compound concentration 1000.0 nM

Chain of Mitogen-activated protein kinase 15 (Homo sapiens) (Q8TD08 whole entry): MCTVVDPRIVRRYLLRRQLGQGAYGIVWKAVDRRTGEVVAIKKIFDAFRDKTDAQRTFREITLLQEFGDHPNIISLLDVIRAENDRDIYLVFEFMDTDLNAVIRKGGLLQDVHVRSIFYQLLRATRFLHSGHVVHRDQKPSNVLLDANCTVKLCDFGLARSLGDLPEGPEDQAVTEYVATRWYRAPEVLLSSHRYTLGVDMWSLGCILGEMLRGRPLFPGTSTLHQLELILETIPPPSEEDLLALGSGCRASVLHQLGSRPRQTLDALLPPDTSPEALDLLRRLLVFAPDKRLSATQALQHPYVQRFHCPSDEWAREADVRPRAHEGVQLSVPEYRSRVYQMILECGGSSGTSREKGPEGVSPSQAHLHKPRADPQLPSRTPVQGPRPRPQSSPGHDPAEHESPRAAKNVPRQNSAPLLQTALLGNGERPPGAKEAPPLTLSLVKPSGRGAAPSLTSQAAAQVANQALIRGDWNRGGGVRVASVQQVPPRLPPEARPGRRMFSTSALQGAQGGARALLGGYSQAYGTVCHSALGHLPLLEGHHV
Chain of Glycogen synthase kinase-3 alpha (Homo sapiens) (P49840 2-483 limits assumed): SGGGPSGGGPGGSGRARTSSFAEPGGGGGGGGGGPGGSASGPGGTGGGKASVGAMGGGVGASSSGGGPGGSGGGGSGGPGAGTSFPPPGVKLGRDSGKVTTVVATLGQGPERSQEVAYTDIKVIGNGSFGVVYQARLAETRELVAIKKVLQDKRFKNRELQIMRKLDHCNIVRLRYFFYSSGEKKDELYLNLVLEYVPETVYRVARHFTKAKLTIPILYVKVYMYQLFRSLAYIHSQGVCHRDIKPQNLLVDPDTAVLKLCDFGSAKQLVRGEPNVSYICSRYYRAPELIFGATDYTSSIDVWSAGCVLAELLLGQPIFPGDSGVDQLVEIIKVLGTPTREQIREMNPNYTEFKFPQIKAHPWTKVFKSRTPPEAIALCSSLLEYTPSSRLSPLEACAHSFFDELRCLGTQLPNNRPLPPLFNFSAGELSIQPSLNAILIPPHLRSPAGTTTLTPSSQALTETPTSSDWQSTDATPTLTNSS
Chain of D(1B) dopamine receptor (Homo sapiens) (P21918 whole entry): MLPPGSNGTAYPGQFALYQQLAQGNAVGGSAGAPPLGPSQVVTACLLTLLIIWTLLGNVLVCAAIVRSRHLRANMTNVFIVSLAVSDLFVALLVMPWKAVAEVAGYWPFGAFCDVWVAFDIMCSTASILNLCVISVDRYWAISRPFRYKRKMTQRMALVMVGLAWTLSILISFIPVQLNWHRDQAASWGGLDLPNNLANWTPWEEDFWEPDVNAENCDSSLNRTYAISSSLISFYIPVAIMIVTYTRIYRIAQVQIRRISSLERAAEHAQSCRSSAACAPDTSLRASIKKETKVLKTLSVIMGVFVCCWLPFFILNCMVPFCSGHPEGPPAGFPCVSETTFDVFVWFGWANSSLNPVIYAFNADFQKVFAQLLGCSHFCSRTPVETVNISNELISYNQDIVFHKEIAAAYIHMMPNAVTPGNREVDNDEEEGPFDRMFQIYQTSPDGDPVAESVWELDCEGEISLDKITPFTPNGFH
Chain of Tyrosine-protein kinase ABL1 (Homo sapiens), P00519 [F317L] (P00519 whole entry F317L): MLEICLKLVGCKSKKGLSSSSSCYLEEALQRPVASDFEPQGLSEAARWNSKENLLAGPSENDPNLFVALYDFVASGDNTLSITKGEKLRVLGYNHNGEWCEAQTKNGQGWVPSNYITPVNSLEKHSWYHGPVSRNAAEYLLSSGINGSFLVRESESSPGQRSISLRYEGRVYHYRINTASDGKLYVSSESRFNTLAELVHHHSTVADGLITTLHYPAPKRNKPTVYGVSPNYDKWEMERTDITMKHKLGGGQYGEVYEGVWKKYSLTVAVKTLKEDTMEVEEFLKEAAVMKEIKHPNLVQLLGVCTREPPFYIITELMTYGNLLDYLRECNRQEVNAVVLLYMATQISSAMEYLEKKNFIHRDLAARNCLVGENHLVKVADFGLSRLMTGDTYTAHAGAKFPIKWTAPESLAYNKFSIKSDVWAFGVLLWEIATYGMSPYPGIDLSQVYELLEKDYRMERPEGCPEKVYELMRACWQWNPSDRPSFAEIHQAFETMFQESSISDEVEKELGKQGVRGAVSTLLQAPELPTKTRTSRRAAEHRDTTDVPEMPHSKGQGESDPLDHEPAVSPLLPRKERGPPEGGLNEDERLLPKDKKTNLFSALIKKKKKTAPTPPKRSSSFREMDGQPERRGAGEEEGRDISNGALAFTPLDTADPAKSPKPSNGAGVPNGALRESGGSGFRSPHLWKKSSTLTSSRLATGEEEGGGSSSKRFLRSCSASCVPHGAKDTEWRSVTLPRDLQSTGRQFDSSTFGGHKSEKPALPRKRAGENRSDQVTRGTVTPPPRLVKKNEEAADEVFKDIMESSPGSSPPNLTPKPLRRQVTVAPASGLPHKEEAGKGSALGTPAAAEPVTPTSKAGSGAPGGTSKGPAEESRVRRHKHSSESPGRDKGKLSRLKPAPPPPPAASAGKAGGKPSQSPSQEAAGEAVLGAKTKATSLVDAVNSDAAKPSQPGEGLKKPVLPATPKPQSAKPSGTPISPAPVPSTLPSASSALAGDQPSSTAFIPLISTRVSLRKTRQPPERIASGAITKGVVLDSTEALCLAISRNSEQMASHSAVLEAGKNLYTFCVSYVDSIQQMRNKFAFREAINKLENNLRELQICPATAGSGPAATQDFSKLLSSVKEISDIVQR
Chain of Serine/threonine-protein kinase B-raf (Homo sapiens), P15056 [V600E] (P15056 whole entry V600E): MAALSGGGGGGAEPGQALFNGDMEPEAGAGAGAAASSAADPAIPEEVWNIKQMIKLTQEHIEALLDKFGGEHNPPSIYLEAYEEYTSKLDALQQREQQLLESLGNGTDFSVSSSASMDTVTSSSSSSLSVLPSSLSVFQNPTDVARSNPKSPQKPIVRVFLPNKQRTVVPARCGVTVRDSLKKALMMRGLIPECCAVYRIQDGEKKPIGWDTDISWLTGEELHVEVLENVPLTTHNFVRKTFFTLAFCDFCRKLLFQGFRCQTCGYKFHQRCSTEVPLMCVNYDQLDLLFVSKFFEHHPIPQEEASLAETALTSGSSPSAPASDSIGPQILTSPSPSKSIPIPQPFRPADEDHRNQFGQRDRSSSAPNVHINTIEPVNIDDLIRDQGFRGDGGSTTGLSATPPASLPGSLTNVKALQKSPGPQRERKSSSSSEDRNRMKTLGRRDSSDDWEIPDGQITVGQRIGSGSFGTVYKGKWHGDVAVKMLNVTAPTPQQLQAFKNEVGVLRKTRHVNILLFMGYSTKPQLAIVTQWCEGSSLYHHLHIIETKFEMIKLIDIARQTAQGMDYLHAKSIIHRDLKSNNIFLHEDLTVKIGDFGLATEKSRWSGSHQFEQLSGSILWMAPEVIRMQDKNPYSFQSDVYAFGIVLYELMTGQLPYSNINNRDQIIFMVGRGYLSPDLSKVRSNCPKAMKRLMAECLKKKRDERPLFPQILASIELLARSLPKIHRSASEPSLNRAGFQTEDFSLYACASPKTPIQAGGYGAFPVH
Chain of Tyrosine-protein kinase Yes (Homo sapiens) (P07947 2-543 limits assumed): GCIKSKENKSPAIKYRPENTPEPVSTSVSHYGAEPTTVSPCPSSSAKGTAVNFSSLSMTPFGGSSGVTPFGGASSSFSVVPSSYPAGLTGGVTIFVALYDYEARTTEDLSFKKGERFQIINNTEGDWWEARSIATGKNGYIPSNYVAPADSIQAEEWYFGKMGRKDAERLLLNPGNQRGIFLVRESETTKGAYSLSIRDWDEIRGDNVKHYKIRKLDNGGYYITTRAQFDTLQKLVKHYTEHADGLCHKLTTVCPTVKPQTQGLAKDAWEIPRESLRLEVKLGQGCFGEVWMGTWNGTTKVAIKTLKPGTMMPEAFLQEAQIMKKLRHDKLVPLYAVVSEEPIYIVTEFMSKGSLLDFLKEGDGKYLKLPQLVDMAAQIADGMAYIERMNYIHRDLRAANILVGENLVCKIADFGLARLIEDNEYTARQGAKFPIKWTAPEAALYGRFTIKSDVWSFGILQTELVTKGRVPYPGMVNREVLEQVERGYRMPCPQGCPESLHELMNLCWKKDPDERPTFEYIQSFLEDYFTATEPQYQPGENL
Chain of Eukaryotic translation initiation factor 2-alpha kinase 1 (Homo sapiens) (Q9BQI3 whole entry): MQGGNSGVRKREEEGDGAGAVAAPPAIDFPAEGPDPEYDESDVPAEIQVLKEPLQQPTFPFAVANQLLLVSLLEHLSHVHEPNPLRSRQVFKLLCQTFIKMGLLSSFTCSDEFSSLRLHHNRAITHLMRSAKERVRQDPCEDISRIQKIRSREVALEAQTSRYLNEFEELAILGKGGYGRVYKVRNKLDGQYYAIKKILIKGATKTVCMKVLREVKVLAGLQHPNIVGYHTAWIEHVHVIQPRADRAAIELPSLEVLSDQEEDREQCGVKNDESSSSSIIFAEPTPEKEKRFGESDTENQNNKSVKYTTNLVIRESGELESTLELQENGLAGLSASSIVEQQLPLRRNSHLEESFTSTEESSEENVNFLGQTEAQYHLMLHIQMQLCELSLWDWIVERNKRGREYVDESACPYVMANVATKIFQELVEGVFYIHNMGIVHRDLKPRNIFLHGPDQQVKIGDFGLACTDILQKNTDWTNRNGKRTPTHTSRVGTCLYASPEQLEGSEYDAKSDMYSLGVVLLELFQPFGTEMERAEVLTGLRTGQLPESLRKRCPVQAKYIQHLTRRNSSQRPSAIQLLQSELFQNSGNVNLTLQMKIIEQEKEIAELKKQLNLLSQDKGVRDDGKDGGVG
Chain of Serine/threonine-protein kinase pim-1 (Homo sapiens) (P11309 whole entry, looked up): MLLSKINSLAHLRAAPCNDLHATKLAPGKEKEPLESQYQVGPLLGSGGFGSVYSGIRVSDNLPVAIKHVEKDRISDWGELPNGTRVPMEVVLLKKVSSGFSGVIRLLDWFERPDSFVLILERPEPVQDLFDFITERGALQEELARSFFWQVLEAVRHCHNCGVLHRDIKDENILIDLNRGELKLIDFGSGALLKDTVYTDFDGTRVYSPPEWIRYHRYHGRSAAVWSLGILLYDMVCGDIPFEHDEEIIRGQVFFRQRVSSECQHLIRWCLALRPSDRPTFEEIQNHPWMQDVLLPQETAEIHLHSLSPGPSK

C[C@@H]1CN(c2cc(-c3n[nH]c4ccc(OC5(C)CC5)cc34)ncn2)C[C@H](C)O1 [MLi-2]
inactive: residual activity [1, 19] 89% | residual activity [2, 19] 88% | residual activity [3, 19] 100% | residual activity [4, 19] 100% | residual activity [5, 19] 89% | inhibition [6] 16.1% | residual activity [7, 19] 100% | residual activity [8, 19] 100% | residual activity [9, 19] 81% | residual activity [10, 19] 80% | residual activity [11, 19] 78% | residual activity [12, 19] 69% | residual activity [13, 19] 82% | residual activity [14, 19] 65% | residual activity [15, 19] 100% | residual activity [16, 19] 100% | residual activity [17, 19] 83% | residual activity [18, 19] 69%

C[C@@H]1CN(c2cc(-c3nn(C)c4ccc(OC5(C)CC5)cc34)ncn2)C[C@H](C)O1 [MLi-2-NC]
inactive: residual activity [1, 20] 82% | residual activity [2, 20] 55% | residual activity [3, 20] 60% | residual activity [4, 20] 77% | residual activity [5, 20] 91% | inhibition [6] 3.61% | residual activity [7, 20] 86% | residual activity [8, 20] 100% | residual activity [9, 20] 72% | residual activity [10, 20] 98% | residual activity [11, 20] 98% | residual activity [12, 20] 100% | residual activity [13, 20] 86% | residual activity [14, 20] 64% | residual activity [15, 20] 100% | residual activity [16, 20] 89% | residual activity [17, 20] 100% | residual activity [18, 20] 92%
